pIC50: −log10 of the molar value. Like-named read-outs stand apart in the source and are kept apart here.
Columns and labels:
Format in all cases: biochemical
Pim1 kinase = Pim1 kinase (Homo sapiens, UniProt P11309); test: Pim1 ATP depletion assay; details: Pim1 ATP depletion assay; for pIC50: read-out: PIM1 IC50; for IC50: read-out: IC50 (μM) PIM1;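 for all read-outs here: Luciferase-luciferin luminescence readout of residual ATP after PIM1 transfers phosphate to a peptide substrate, 40 µM ATP added, reaction run to roughly half ATP consumption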
Sequence of Pim1 kinase (P11309 whole entry): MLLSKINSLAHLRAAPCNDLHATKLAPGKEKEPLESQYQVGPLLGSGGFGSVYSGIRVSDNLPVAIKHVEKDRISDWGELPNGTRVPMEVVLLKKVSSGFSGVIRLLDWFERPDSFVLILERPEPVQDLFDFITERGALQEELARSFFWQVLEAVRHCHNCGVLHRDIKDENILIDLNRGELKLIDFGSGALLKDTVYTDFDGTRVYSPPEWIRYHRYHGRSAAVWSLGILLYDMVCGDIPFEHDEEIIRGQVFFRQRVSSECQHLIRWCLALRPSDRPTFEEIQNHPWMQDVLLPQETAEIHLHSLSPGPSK

Pim3 kinase = Pim3 kinase (Homo sapiens, UniProt Q86V86); test: Pim3 ATP depletion assay; details: for pIC50: read-out: PIM3 IC50; for IC50: read-out: IC50 (μM) PIM3
Pim2 kinase = Pim2 kinase (Homo sapiens, UniProt Q9P1W9); test: Pim2 ATP depletion assay; details: for pIC50: read-out: PIM2 IC50; for IC50: read-out: IC50 (μM) PIM2;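 for all read-outs here: Luciferase-based luminescent readout of ATP remaining after PIM2 phosphorylates a BAD peptide, final 5 nM enzyme, 4 µM ATP, 10 µM peptide, 2.5% DMSO, run to roughly half ATP consumption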
Sequence of Pim2 kinase (Q9P1W9 whole entry): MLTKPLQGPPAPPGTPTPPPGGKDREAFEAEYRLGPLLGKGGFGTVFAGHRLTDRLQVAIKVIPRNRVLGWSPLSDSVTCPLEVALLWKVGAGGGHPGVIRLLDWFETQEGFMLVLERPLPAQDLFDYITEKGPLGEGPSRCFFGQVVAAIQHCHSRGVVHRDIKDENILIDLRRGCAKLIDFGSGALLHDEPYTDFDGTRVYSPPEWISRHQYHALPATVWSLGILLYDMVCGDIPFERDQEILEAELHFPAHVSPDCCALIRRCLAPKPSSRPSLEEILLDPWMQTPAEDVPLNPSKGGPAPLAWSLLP

Row | pIC50 (Pim1 kinase) | pIC50 (Pim3 kinase) | pIC50 (Pim2 kinase) | IC50 (Pim1 kinase) [µM] | IC50 (Pim3 kinase) [µM] | IC50 (Pim2 kinase) [µM] | Structure (SMILES)
1 | > 6.00 | > 6.00 | > 6.00 | – | – | – | Nc1ccc(-c2ccccc2F)nc1C(=O)Nc1cnccc1N1CCCC(O)C1 (stereo not drawn) [Example 661, 3-Amino-6-(2-fluoro-phenyl)-pyridine-2-carboxylic acid (3-hydroxy-3,4,5,6-tetrahydro-2H-[1,4′]bipyridinyl-3′-yl)-amide]
2 | – | – | – | < 1 | < 1 | < 1 | Nc1ccc(-c2c(F)cccc2F)nc1C(=O)Nc1cnccc1N1CC[C@@H]2OC(=O)N[C@@H]2C1 [Example 303, 3-Amino-6-(2,6-difluoro-phenyl)-pyridine-2-carboxylic acid [4-(2-oxo-hexahydro-oxazolo[4,5-c]pyridin-5-yl)-pyridin-3-yl]-amide]
3 | – | – | – | < 1 | < 1 | < 1 | CCCOc1ccc(F)c(-c2ccc(N)c(C(=O)Nc3cnccc3N3CCC[C@H](N)C3)n2)c1 [Example 468, 3-Amino-6-(2-fluoro-5-propoxy-phenyl)-pyridine-2-carboxylic acid (3-amino-3,4,5,6-tetrahydro-2H-[1,4′]bipyridinyl-3′-yl)-amide]
4 | > 6.00 | > 6.00 | > 6.00 | – | – | – | CCOc1cncc(-c2nc(C(=O)Nc3cnccc3N3CCC[C@H](N)C3)c(N)cc2F)n1 [Example 740, 3-Amino-6-(6-ethoxy-pyrazin-2-yl)-5-fluoro-pyridine-2-carboxylic acid (3-amino-3,4,5,6-tetrahydro-2H-[1,4′]bi-pyridinyl-3′-yl)-amide]
5 | > 6.00 | > 6.00 | > 6.00 | – | – | – | Nc1ccc(-c2ccccc2F)nc1C(=O)Nc1cnccc1-c1cncc(F)c1 [Example 601, 3-amino-N-(5-fluoro-3,4′-bipyridin-3′-yl)-6-(2-fluorophenyl)pyridine-2-carboxamide]
6 | > 6.00 | > 6.00 | > 6.00 | – | – | – | CCOc1cccc(-c2ccc(N)c(C(=O)Nc3cnccc3N3CCC[C@H](N)C3)n2)n1 [Example 723, 5-Amino-6′-ethoxy-[2,2′]bi-pyridinyl-6-carboxylic acid (3-amino-3,4,5,6-tetrahydro-2H-[1,4′]bipyridinyl-3′-yl)-amide]
7 | – | – | – | < 1 | < 1 | < 1 | Nc1ccc(-c2ccc(S(N)(=O)=O)cc2)nc1C(=O)Nc1cnccc1N1CCC[C@H](N)C1 [Example 480, 3-Amino-6-(4-sulfamoyl-phenyl)-pyridine-2-carboxylic acid (3-amino-3,4,5,6-tetrahydro-2H-[1,4′]bipyridinyl-3′-yl)-amide]
8 | > 6.00 | > 6.00 | > 6.00 | – | – | – | N[C@@H]1CN(c2ccncc2NC(=O)c2ccc(F)c(-c3ccccc3F)n2)CC[C@H]1O [Example 682, 5-Fluoro-6-(2-fluoro-phenyl)-pyridine-2-carboxylic acid (3-amino-4-hydroxy-3,4,5,6-tetra-hydro-2H-[1,4′]bipyridinyl-3′-yl)-amide]
9 | – | – | – | < 1 | < 1 | < 1 | COc1ccc(F)c(-c2ccc(N)c(C(=O)Nc3cnccc3N3CCC[C@H](N)C3)n2)c1 [Example 470, 3-Amino-6-(2-fluoro-5-methoxy-phenyl)-pyridine-2-carboxylic acid (3-amino-3,4,5,6-tetrahydro-2H-[1,4′]bipyridinyl-3′-yl)-amide]
10 | – | – | – | 1 to 10 | 1 to 10 | 10 to 25 | Nc1ncc(-c2cccc(C(=O)N3CCOCC3)c2)nc1C(=O)Nc1ccccc1N1CCNCC1 [Example 398, 3-amino-6-[3-(morpholine-4-carbonyl)-phenyl]-pyrazine-2-carboxylic acid (2-piperazin-1-yl-phenyl)-amide]
11 | > 6.00 | > 6.00 | > 6.00 | – | – | – | Cc1nc(N)cc(-c2ccncc2NC(=O)c2nc(-c3ccccc3)ccc2N)n1 [Example 559, 3-Amino-6-phenyl-pyridine-2-carboxylic acid [4-(6-amino-2-methyl-pyrimidin-4-yl)-pyridin-3-yl]-amide]
12 | – | – | – | < 1 | < 1 | < 1 | Cc1csc(-c2ccc(N)c(C(=O)Nc3cnccc3N3CCC[C@H](N)C3)n2)c1 [Example 451, 3-Amino-6-(4-methyl-thiophen-2-yl)-pyridine-2-carboxylic acid (3-amino-3,4,5,6-tetrahydro-2H-[1,4′]bipyridinyl-3′-yl)-amide]
13 | > 6.00 | > 6.00 | > 6.00 | – | – | – | Nc1cnc(-c2c(F)cccc2F)nc1C(=O)Nc1cnccc1N1CC[C@@H](O)[C@H](N)C1 (stereo in doubt) [Example 663, 5-Amino-2-(2,6-difluoro-phenyl)-pyrimidine-4-carboxylic acid (3-amino-4-hydroxy-3,4,5,6-tetrahydro-2H-[1,4′]bipyridinyl-3′-yl)-amide]
14 | > 6.00 | > 6.00 | > 6.00 | – | – | – | Cc1cc(-c2ccncc2NC(=O)c2nc(-c3ccccc3F)ccc2N)nc(N)n1 [Example 626, 3-amino-N-[4-(2-amino-6-methylpyrimidin-4-yl)-pyridin-3-yl]-6-(2-fluoro-phenyl)pyridine-2-carboxamide]
15 | – | – | – | < 1 | < 1 | < 1 | Nc1ccc(-c2c(F)cccc2F)nc1C(=O)Nc1cnccc1N1CC[C@@H](F)[C@H](N)C1 [Example 277, 3-Amino-6-(2,6-difluoro-phenyl)-pyridine-2-carboxylic acid (3-amino-4-fluoro-3,4,5,6-tetrahydro-2H-[1,4′]bipyridinyl-3′-yl)-amide]
16 | – | – | – | 10 to 25 | > 25 | > 25 | Nc1ncccc1C(=O)Nc1cnccc1N1CCCC(N)C1 (stereo not drawn) [Example 200, 2-amino-N-[4-(3-aminopiperidin-1-yl)pyridin-3-yl]nicotinamide]
17 | – | – | – | < 1 | < 1 | < 1 | NC1CC(C(F)(F)F)CN(c2ccncc2NC(=O)c2ccc(F)c(-c3ccccc3F)n2)C1 (stereo not drawn) [Example 281, 5-Fluoro-6-(2-fluoro-phenyl)-pyridine-2-carboxylic acid (3-amino-5-trifluoromethyl-3,4,5,6-tetrahydro-2H-[1,4′]bipyridinyl-3′-yl)-amide]
18 | > 6.00 | > 6.00 | > 6.00 | – | – | – | Cc1cc(-c2ccncc2NC(=O)c2nc(-c3cc(C(=O)NC(C)C)ccc3F)c(F)cc2N)nc(N)n1 [Example 560, 3-Amino-5-fluoro-6-(2-fluoro-5-isopropylcarbamoyl-phenyl)-pyridine-2-carboxylic acid [4-(2-amino-6-methyl-pyrimidin-4-yl)-pyridin-3-yl]-amide]
19 | – | – | – | < 1 | < 1 | < 1 | COC1CCN(c2ccncc2NC(=O)c2nc(-c3c(F)cccc3F)ccc2N)CC1N (stereo not drawn) [Example 301, 3-Amino-6-(2,6-difluoro-phenyl)-pyridine-2-carboxylic acid (3-amino-4-methoxy-3,4,5,6-tetrahydro-2H-[1,4′]bi-pyridinyl-3′-yl)-amide]
20 | – | – | – | < 1 | < 1 | < 1 | CC1CC(N)CN(c2ccncc2NC(=O)c2nc(-c3ccccc3F)ccc2F)C1 (stereo not drawn) [Example 286, 3-Fluoro-6-(2-fluoro-phenyl)-pyridine-2-carboxylic acid (5-amino-3-methyl-3,4,5,6-tetra-hydro-2H-[1,4′]bipyridinyl-3′-yl)-amide]
21 | > 6.00 | > 6.00 | > 6.00 | – | – | – | Nc1ccc(-c2cccc(CN3CCOCC3)c2)nc1C(=O)Nc1cnccc1N1CCC[C@H](N)C1 [Example 566, 3-Amino-6-(3-morpholin-4-ylmethyl-phenyl)-pyridine-2-carboxylic acid (3-amino-3,4,5,6-tetrahydro-2H-[1,4′]bipyridinyl-3′-yl)-amide]
22 | – | – | – | < 1 | < 1 | < 1 | Nc1cnc(-c2c(F)cccc2F)nc1C(=O)Nc1cnccc1N1C[C@H](N)C[C@H](N)C1 [Example 246, 5-Amino-2-(2,6-difluoro-phenyl)-pyrimidine-4-carboxylic acid (3,5-diamino-3,4,5,6-tetra-hydro-2H-[1,4′]bipyridinyl-3′-yl)-amide]
23 | > 6.00 | > 6.00 | > 6.00 | – | – | – | Nc1ccc(-c2ccncc2NC(=O)c2nc(-c3ccccc3F)ccc2N)cn1 [Example 604, 3-amino-N-(6-amino-3,4′-bipyridin-3′-yl)-6-(2-fluoro-phenyl)pyridine-2-carboxamide]
24 | > 6.00 | > 6.00 | > 6.00 | – | – | – | Nc1ccc(-c2ccccc2F)nc1C(=O)Nc1cnccc1N1CCC[C@H](O)C1 [Example 660, 3-Amino-6-(2-fluoro-phenyl)-pyridine-2-carboxylic acid (3-hydroxy-3,4,5,6-tetrahydro-2H-[1,4′]bipyridinyl-3′-yl)-amide]
25 | > 6.00 | > 6.00 | > 6.00 | – | – | – | CN1CCN(c2ccc(-c3ccc(N)c(C(=O)Nc4cnccc4-c4cc(N)nc(C(F)(F)F)n4)n3)cc2)CC1 [Example 574, 3-Amino-6-[4-(4-methyl-piperazin-1-yl)-phenyl]-pyridine-2-carboxylic acid [4-(6-amino-2-trifluoromethyl-pyrimidin-4-yl)-pyridin-3-yl]-amide]
26 | > 6.00 | > 6.00 | > 6.00 | – | – | – | N[C@H]1CCCN(c2ccncc2NC(=O)c2nc(-c3ccccc3F)ccc2F)C1 [Example 571, 3-Fluoro-6-(2-fluoro-phenyl)-pyridine-2-carboxylic acid (3-amino-3,4,5,6-tetrahydro-2H-[1,4′]bipyridinyl-3′-yl)-amide]
27 | > 6.00 | > 6.00 | > 6.00 | – | – | – | N[C@H]1C[C@@H](O)CN(c2ccncc2NC(=O)c2ccc(F)c(-c3ccccc3F)n2)C1 [Example 684, 5-Fluoro-6-(2-fluoro-phenyl)-pyridine-2-carboxylic acid (5-amino-3-hydroxy-3,4,5,6-tetra-hydro-2H-[1,4′]bipyridinyl-3′-yl)-amide]

Source: US20140249135A1, “PIM KINASE INHIBITORS AND METHODS OF THEIR USE” (NOVARTIS AG, priority 2007, published 2014)
